Patent publication US10597388B2, “Pyridazinone herbicides” (FMC CORPORATION, priority 2014, dated 2020)

Experiments:
Type in all cases: in vivo
[1] = test system: barnyardgrass (Echinochloa crus-galli); assay: Test A greenhouse herbicide test, pre- and postemergence
Summary of the method: (§1)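 Seeds sown in loam–sand blend got a preemergence directed soil spray of compound in non-phytotoxic solvent with surfactant. Postemergence treatment was given at 2–10 cm, one- to two-leaf stage. After ~10 d in greenhouse, injury was rated visually vs untreated controls, 0 (no effect) to 100 (complete control).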

[2] = test system: corn (Zea mays); assay: as above; details: Postemergence
Summary of the method: as §1

[3] = test system: foxtail, giant (giant foxtail, Setaria faberii); assay: as above
Summary of the method: as §1

[4] = test system: kochia (Kochia scoparia); assay: as above
Summary of the method: as §1

[5] = test system: pigweed (Amaranthus retroflexus); assay: as above
Summary of the method: as §1

[6] = test system: ragweed (common ragweed, Ambrosia elatior); assay: as above
Summary of the method: as §1

[7] = test system: ryegrass, Italian (Italian ryegrass, Lolium multiflorum); assay: as above
Summary of the method: as §1

[8] = test system: wheat (Triticum aestivum); assay: as above; details: Postemergence
Summary of the method: as §1

[9] = test system: blackgrass (Alopecurus myosuroides); assay: Test A greenhouse herbicide test, postemergence
Summary of the method: (§2)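 Plants grown in loam soil/sand blend pots were treated postemergence at 2 to 10 cm height, one- to two-leaf stage, with formulated test chemicals. After approximately 10 d in a greenhouse, injury was rated visually against untreated controls on a 0 to 100 scale (0 no effect, 100 complete control).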

[10] = test system: galium (catchweed bedstraw, Galium aparine); assay: Test A greenhouse herbicide test, postemergence
Summary of the method: as §2

[11] = test system: barnyardgrass (Echinochloa crus-galli); assay: Test B flooded paddy test; details: 250 g ai/ha, Flood; visual rating on scale of 0 to 100 where 0 is no effect and 100 is complete control; 13 to 15 d after treatment
Summary of the method: (§3)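 Plants at the 2-leaf stage were flooded to 3 cm above soil, and test compounds were applied directly into the paddy water, which was held at that depth throughout. After 13 to 15 d in a greenhouse, injury was rated visually against untreated controls on a 0–100 scale (0 no effect, 100 complete control).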

[12] = test system: ducksalad (Heteranthera limosa); assay: Test B flooded paddy test; details: 250 g ai/ha, Flood; visual rating on scale of 0 to 100 where 0 is no effect and 100 is complete control; 13 to 15 d after treatment
Summary of the method: as §3

[13] = test system: rice (Oryza sativa); assay: Test B flooded paddy test; details: 250 g ai/ha, Flood; visual rating on scale of 0 to 100 where 0 is no effect and 100 is complete control; 13 to 15 d after treatment
Summary of the method: as §3

[14] = test system: sedge, umbrella (small-flower umbrella sedge, Cyperus difformis); assay: Test B flooded paddy test; details: 250 g ai/ha, Flood; visual rating on scale of 0 to 100 where 0 is no effect and 100 is complete control; 13 to 15 d after treatment
Summary of the method: as §3

[15] = Postemergence, 125 g ai/ha, 0 to 100 scale, 0 no effect, 100 complete control
[16] = Postemergence, 500 g ai/ha, visual rating after approx. 10 d, 0 to 100 scale (0 no effect, 100 complete control)
[17] = Preemergence, 125 g ai/ha, visual injury rating, 0 to 100 scale (0 no effect, 100 complete control), approx. 10 d
[18] = Preemergence, 500 g ai/ha, 0 to 100 scale where 0 is no effect and 100 is complete control
[19] = 125 g ai/ha, 0 to 100 scale, 0 no effect, 100 complete control
[20] = 500 g ai/ha, visual rating after approx. 10 d, 0 to 100 scale (0 no effect, 100 complete control)

| Compound | Plant response rating, Barnyardgrass [1, 15] | Plant response rating, Barnyardgrass [1, 16] | Plant response rating, Barnyardgrass [1, 17] | Plant response rating, Barnyardgrass [1, 18] | Plant response rating, Corn [2, 19] | Plant response rating, Corn [2, 20] | Plant response rating, Foxtail, Giant [3, 15] | Plant response rating, Foxtail, Giant [3, 16] | Plant response rating, Foxtail, Giant [3, 17] | Plant response rating, Foxtail, Giant [3, 18] | Plant response rating, Kochia [4, 15] | Plant response rating, Kochia [4, 16] | Plant response rating, Kochia [4, 17] | Plant response rating, Kochia [4, 18] | Plant response rating, Pigweed [5, 15] | Plant response rating, Pigweed [5, 16] | Plant response rating, Pigweed [5, 17] | Plant response rating, Pigweed [5, 18] | Plant response rating, Ragweed [6, 15] | Plant response rating, Ragweed [6, 16] | other results |
| --- | --- | --- | --- | --- | --- | --- | --- | --- | --- | --- | --- | --- | --- | --- | --- | --- | --- | --- | --- | --- | --- |
| Cc1nn(C)c(=O)c(-c2c([N+](=O)[O-])ccc3ccccc23)c1OC(=O)C(C)(C)C [Compound 163] | 0 | 0 | 0 | 0 | 0 | 0 | 0 | 0 | 0 | 0 | 0 | 20 | 0 | 0 | 0 | 20 | 30 | 70 | 0 | 0 | Plant response rating, Ragweed [6, 17]: 0; Plant response rating, Ragweed [6, 18]: 0; Plant response rating, Ryegrass, Italian [7, 15]: 20; Plant response rating, Ryegrass, Italian [7, 16]: 70; Plant response rating, Ryegrass, Italian [7, 17]: 10; Plant response rating, Ryegrass, Italian [7, 18]: 50; Plant response rating, Wheat [8, 19]: 0; Plant response rating, Wheat [8, 20]: 0; Plant response rating, Blackgrass [9, 19]: 0; Plant response rating, Blackgrass [9, 20]: 20; Plant response rating, Galium [10, 19]: 30; Plant response rating, Galium [10, 20]: 60; Plant response rating, Barnyardgrass [11]: 0; Plant response rating, Ducksalad [12]: 0; Plant response rating, Rice [13]: 0; Plant response rating, Sedge, Umbrella [14]: 0 |
| Cc1n[nH]c(=O)c(-c2cccc3ccccc23)c1O [Compound 169] | 0 | 20 | 0 | 30 | 0 | 30 | 0 | 30 | 0 | 30 | 40 | 100 | 20 | 90 | 20 | 70 | 50 | 100 | 0 | 80 | Plant response rating, Ragweed [6, 17]: 0; Plant response rating, Ragweed [6, 18]: 20; Plant response rating, Ryegrass, Italian [7, 15]: 70; Plant response rating, Ryegrass, Italian [7, 16]: 100; Plant response rating, Ryegrass, Italian [7, 17]: 80; Plant response rating, Ryegrass, Italian [7, 18]: 100; Plant response rating, Wheat [8, 19]: 0; Plant response rating, Wheat [8, 20]: 30; Plant response rating, Blackgrass [9, 19]: 10; Plant response rating, Blackgrass [9, 20]: 20; Plant response rating, Galium [10, 19]: 30; Plant response rating, Galium [10, 20]: 70; Plant response rating, Barnyardgrass [11]: 0; Plant response rating, Ducksalad [12]: 0; Plant response rating, Rice [13]: 0; Plant response rating, Sedge, Umbrella [14]: 0 |
| Cc1nn(C)c(=O)c(-c2c(C)sc3ccccc23)c1OC(=O)N1CCOCC1 [Compound 170] | 0 | 10 | 0 | 0 | 0 | 0 | 0 | 10 | 0 | 0 | 0 | 70 | 0 | 0 | 70 | 80 | 30 | 100 | 40 | 80 | Plant response rating, Ragweed [6, 17]: 0; Plant response rating, Ragweed [6, 18]: 20; Plant response rating, Ryegrass, Italian [7, 15]: 0; Plant response rating, Ryegrass, Italian [7, 16]: 50; Plant response rating, Ryegrass, Italian [7, 17]: 0; Plant response rating, Ryegrass, Italian [7, 18]: 40; Plant response rating, Wheat [8, 19]: 0; Plant response rating, Wheat [8, 20]: 0; Plant response rating, Blackgrass [9, 19]: 0; Plant response rating, Blackgrass [9, 20]: 10; Plant response rating, Galium [10, 19]: 40; Plant response rating, Galium [10, 20]: 80; Plant response rating, Barnyardgrass [11]: 0; Plant response rating, Ducksalad [12]: 0; Plant response rating, Rice [13]: 0; Plant response rating, Sedge, Umbrella [14]: 60 |
| COC(=O)Cn1nc(C)c(O)c(-c2cccc3ccccc23)c1=O [Compound 172] | 40 | 70 | 20 | 50 | 0 | 0 | 40 | 80 | 60 | 90 | 0 | 20 | 0 | 0 | 0 | 30 | 0 | 0 | 0 | 0 | Plant response rating, Ragweed [6, 17]: 0; Plant response rating, Ragweed [6, 18]: 0; Plant response rating, Ryegrass, Italian [7, 15]: 20; Plant response rating, Ryegrass, Italian [7, 16]: 60; Plant response rating, Ryegrass, Italian [7, 17]: 0; Plant response rating, Ryegrass, Italian [7, 18]: 20; Plant response rating, Wheat [8, 19]: 20; Plant response rating, Wheat [8, 20]: 20; Plant response rating, Blackgrass [9, 19]: 20; Plant response rating, Blackgrass [9, 20]: 30; Plant response rating, Galium [10, 19]: 20; Plant response rating, Galium [10, 20]: 40; Plant response rating, Barnyardgrass [11]: 0; Plant response rating, Ducksalad [12]: 0; Plant response rating, Rice [13]: 0; Plant response rating, Sedge, Umbrella [14]: 0 |
